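Each compound was tested at five concentrations against cells in 96-well plates for 48 hours. TGI marks complete inhibition of growth.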
Columns and labels:
Test in all cases: inhibition of tumour cell growth, NCI panel, 48 h
[1] = test system: NCI-H460 lung
[2] = test system: HL-60(TB) leukemia
[3] = test system: PC-3 prostate
[4] = test system: NCI-H23 lung
[5] = test system: SK-MEL-5 melanoma
[6] = test system: MDA-N
[7] = test system: HOP-62 NSCLC
[8] = test system: KM12 colon
[9] = test system: SN12C renal
[10] = test system: DU-145 prostate
[11] = test system: MALME-3M melanoma
[12] = test system: TK-10 renal
[13] = test system: HOP-92 NSCLC
[14] = test system: SNB-19 CNS
[15] = test system: OVCAR-3 ovarian
[16] = test system: CAKI-1 renal
[17] = test system: HT29 colon
[18] = test system: UO-31 renal
[19] = test system: SR leukemia
[20] = test system: CCRF-CEM leukemia
[21] = test system: HCT-15 colon
[22] = test system: NCI-H522 lung
[23] = test system: SF-539 CNS
[24] = test system: COLO 205 colon
[25] = test system: MDA-MB-231 breast
[26] = test system: SW-620 colon
[27] = test system: NCI/ADR-RES ovarian
[28] = test system: 786-0 renal
[29] = test system: M14 melanoma
[30] = test system: MCF7 breast
[31] = test system: SK-OV-3 ovarian
[32] = test system: SK-MEL-28 melanoma
[33] = test system: MOLT-4 leukemia
[34] = test system: HS 578T breast
[35] = test system: SNB-75 CNS
[36] = test system: RXF 393 renal
[37] = test system: T-47D breast
[38] = test system: SF-268 CNS
[39] = test system: ACHN renal
[40] = test system: HCT-116 colon
[41] = test system: K-562 leukemia
[42] = test system: LOX IMVI melanoma
[43] = test system: IGROV1 ovarian
[44] = test system: SK-MEL-2 melanoma
[45] = test system: MDA-MB-435
[46] = test system: A549 NSCLC
[47] = test system: U251 CNS
[48] = test system: BT-549 breast
[49] = test system: EKVX NSCLC
[50] = test system: OVCAR-4 ovarian
[51] = test system: RPMI-8226 leukemia
[52] = test system: OVCAR-8 ovarian
[53] = test system: UACC-257 melanoma
[54] = test system: A498 renal
[55] = test system: SF-295 CNS
[56] = test system: NCI-H226 lung
[57] = test system: UACC-62 melanoma
[58] = test system: OVCAR-5 ovarian
[59] = test system: M19-MEL melanoma
[60] = test system: DMS 114 small cell lung
[61] = test system: KM20L2 colon
[62] = test system: LXFL 529 NSCLC
[63] = test system: SNB-78 CNS

Measured: TGI

Cn1c(=O)c2[nH]c(SCCN3CCOCC3)nc2n(C)c1=S
not listed: [59] | [60] | [61] | [62] | [63]
> 100 µM: all other assays above

COc1ccc2c(c1)CC[C@@H]1C2CC[C@](C)(C#N)C1CC#N (some centres not stated)
not listed: [2] | [3] | [5] | [6] | [9] | [10] | [12] | [16] | [21] | [23] | [25] | [26] | [27] | [30] | [34] | [37] | [42] | [44] | [45] | [46] | [48] | [49] | [52] | [56]
> 100 µM: all other assays above
